# Laboratory results taken from the NIST ThermoML archive (doi:10.1016/j.jct.2016.09.028).
# ± gives the expanded uncertainty stated by the source.
# Legend:
# [1] = xn = mol fraction of the nth substance listed; conditions: 100 kPa, Liquid, x1 = 1; for speed of sound: Frequency=3 MHz, Sing-around technique in a fixed-path interferometer; for mass density: Vibrating tube method
# [2] = 100 kPa, Liquid; for speed of sound: Frequency=3 MHz, Sing-around technique in a fixed-path interferometer; for mass density: Vibrating tube method
Structure (SMILES),speed of sound ([1]; 293.15 K) [m/s],mass density ([1]; 293.15 K) [kg/m3],speed of sound ([1]; 303.15 K) [m/s],mass density ([1]; 303.15 K) [kg/m3],speed of sound ([1]; 313.15 K) [m/s],mass density ([1]; 313.15 K) [kg/m3],speed of sound ([1]; 323.15 K) [m/s],mass density ([1]; 323.15 K) [kg/m3],speed of sound ([2]; 293.15 K) [m/s],mass density ([2]; 293.15 K) [kg/m3],speed of sound ([2]; 303.15 K) [m/s],mass density ([2]; 303.15 K) [kg/m3],speed of sound ([2]; 313.15 K) [m/s],mass density ([2]; 313.15 K) [kg/m3],speed of sound ([2]; 323.15 K) [m/s],mass density ([2]; 323.15 K) [kg/m3]
CCn1cc[n+](C)c1.F[B-](F)(F)F [1-ethyl-3-methylimidazolium tetrafluoroborate] + Nc1ccccc1,1632.6 ± 2.4,1283.64 ± 1.7,1609.5 ± 2.4,1276.12 ± 1.7,1586.2 ± 2.4,1268.57 ± 1.6,1563.4 ± 2.3,1261.04 ± 1.6,–,–,–,–,–,–,–,–
CCn1cc[n+](C)c1.F[B-](F)(F)F [1-ethyl-3-methylimidazolium tetrafluoroborate],–,–,–,–,–,–,–,–,1632.6 ± 2.4,1283.64 ± 1.7,1609.5 ± 2.4,1276.12 ± 1.7,1586.2 ± 2.4,1268.57 ± 1.6,1563.4 ± 2.3,1261.04 ± 1.6
